Results taken from patent publication US7825151B2, “Hexahydro-cyclooctyl pyrazole cannabinoid modulators” (priority 2005, dated 2010).
Several values for one entry are separate records, joined by “and”; a condition that tells them apart may be missing. Equal values may be shown once.

Assays:
[1] = molecular target: T1, human CB1 receptor (Homo sapiens, UniProt P21554); assay: Functional cell-based CRE β-gal assay, CB1 (adenylate cyclase activity); conditions: single test concentration 10 μM (footnote 1)
T1 construct: expressed in transfected cells; host or cells: SK-N-MC cells, stably transfected with pcDNA3 CB-1 (human)
From the text: (§1) The CB1 and CB2 receptors are G-protein coupled receptors (GPCR), which influence cell function via the Gi-protein. These receptors modulate the activity of intracellular adenylate cyclase, which in turn produces the intracellular signal messenger cyclic-AMP (cAMP).
(§2) At baseline, or during non-ligand bound conditions, these receptors are constitutively active and tonically suppress adenylate cyclase activity. The binding of an agonist causes further receptor activation and produces additional suppression of adenylate cyclase activity. The binding of an inverse agonist inhibits the constitutive activity of the receptors and results in an increase in adenylate cyclase activity.
(§3) By monitoring intracellular adenylate cyclase activity, the ability of compounds to act as agonists or inverse agonists can be determined.
(§4) Test compounds were evaluated in SK-N-MC cells which, using standard transfection procedures, were stably transfected with human cDNA for pcDNA3-CRE β-gal and pcDNA3 CB1 receptor (human) or pcDNA3 CB2 receptor (human). By expressing CRE β-gal, the cells produced β-galactosidase in response to CRE promoter activation by cAMP. Cells expressing CRE β-gal and either the human CB1 or CB2 receptor will produce less β-galactosidase when treated with a CB1/CB2 agonist and will produce more β-galactosidase when treated with a CB1/CB2 inverse agonist.
(§5) The cells were grown in 96-well plates under standard cell culture conditions at 37° C. in a 5% CO2 atmosphere. After 3 days, the media was removed and a test compound in media (wherein the media was supplemented with 2 mM L-glutamine, […] sodium pyruvate, 0.1% low fatty acid FBS (fetal bovine serum) and antibiotics) was added to the cell. The plates were incubated for 30 minutes at 37° C. and the plate cells were then treated with forskolin over a 4-6 hour period, then washed and lysed. The β-galactosidase activity was quantitated using commercially available kit reagents (Promega Corp. Madison, Wis.) and a Vmax Plate Reader (Molecular Devices, Inc).
(§6) The change in β-galactosidase activity was determined by setting a vehicle treated cell's activity value at 100% and expressing the β-galactosidase activity measured in a corresponding compound treated cell as a percent of the vehicle treated cell activity.
The EC50 value for functional activity for compounds tested was calculated by linear regression and was obtained from studies in which varying compound concentrations were used. Data provided for certain compounds is represented by percent change (%) in functional activity at a single test concentration: ^(1)10 μM and ^(2)1 μM.

[2] = molecular target: T1, human CB1 receptor; assay: Binding assay for CB1 ([3H]-CP-55,940 displacement, SK-N-MC membranes); conditions: for inhibition at 10 µM: test concentration 10 μM (footnote 1), read-out: CB1 receptor binding percent inhibition
Experimental: (§7) The human CB1 and CB2 receptors were stably expressed in SK-N-MC cells transfected with pcDNA3 CB-1 (human) or pcDNA3 CB-2 (human). The cells were grown in T-180 cell culture flasks under standard cell culture conditions at 37° C. in a 5% CO2 atmosphere. The cells were harvested by trysinization and homogenized in a homogenization buffer (10 mM Tris, 0.2 mM MgCl2, 5 mM KCl, with protease inhibitors aprotinin, leupeptin, pepstatin A and bacitracin) and centrifuged (2000 g). The supernatant was then centrifuged in 2M sucrose (31,300 g) to produce a semi-purified membrane pellet. The pellet was resuspended in homogenization and stored at −80° C.
(§8) On the day of the assay, the pellet was thawed on ice and diluted in assay buffer (50 mM Tris-HCl, 5 mM MgCl2, 2.5 mM EDTA, 0.5 mg/mL fatty acid free bovine serum albumin, pH 7.5). The diluted membrane pellet was added with buffer, either a test compound or vehicle standard and the radioligand [H]^3+-CP-55,940 (0.2 nM) to the wells of a 96-well polypropylene plate. Non-specific binding was measured in wells containing WIN 55,212 (10 uM). The plate was covered and incubated for 90 minutes at 30° C. The contents were then aspirated onto a Packard Unifilter GF/C filter bottom plate prewet with 0.5% polyethyleneimine. The wells of the polypropylene plate were rinsed and aspirated seven times with a 0.9% saline-0.5% Tween 20 solution. The Unifilter plate was dried, scintillation cocktail was added to each well and the counts representing binding were quantitated in a TopCount scintillation counter.
(§9) For compounds tested, an IC50 binding value was obtained from percent inhibition studies in which various test concentrations were used. The binding value was calculated by linear regression.
(§10) For compounds without an IC50 binding value, the percent inhibition (%) was obtained at a test concentration of ^(1)10 μM, ^(2)1 μM, ^(3)0.2 μM, ^(4)0.003 μM, ^(5) represents an average value.

[3] = molecular target: T2, CB2 receptor (Homo sapiens, UniProt P34972); assay: Binding assay for CB2 ([3H]-CP-55,940 displacement, SK-N-MC membranes); conditions: Cannabinoid CB2 Receptor Binding IC50, radioligand CP-55,940 0.2 nM; SK-N-MC membranes
T2 construct: expressed in transfected cells; host or cells: SK-N-MC cells, stably transfected with pcDNA3 CB-2 (human)
Experimental: as §7, §8, §9, §10

[4] = molecular target: T2, CB2 receptor; assay: Functional cell-based CRE β-gal assay, CB2 (adenylate cyclase activity)
From the text: as §1, §2, §3, §4, §5
For cells expressing CRE β-gal and the CB2 receptor, CB2 agonists reduced β-galactosidase activity in a dose-dependent manner and CB2 inverse agonists increase β-galactosidase activity in a dose-dependent manner.
as §6
The EC50 value for functional activity for compounds tested was calculated by linear regression and was obtained from studies in which varying compound concentrations were used.
The value of 29% for Compound 5 represents change in functional activity and was obtained from a study in which one compound concentration was used.

[5] = molecular target: T2, CB2 receptor; assay: Modified functional cell-based assay (Beta-Glo luminescence), CB2 agonist
Experimental: Additional functional activity studies were performed with minor modifications. Beta galactosidase activity was quantified using the luminescent Beta-Glo Assay System (Promega Corp. Madison, Wis.) and an Orion Microplate Luminometer (Berthold Detection Systems, Oak Ridge, Tenn.). The EC50 values were calculated using GraphPad Prism and a four parameter logistic equation.

T1 sequence (P21554 whole entry): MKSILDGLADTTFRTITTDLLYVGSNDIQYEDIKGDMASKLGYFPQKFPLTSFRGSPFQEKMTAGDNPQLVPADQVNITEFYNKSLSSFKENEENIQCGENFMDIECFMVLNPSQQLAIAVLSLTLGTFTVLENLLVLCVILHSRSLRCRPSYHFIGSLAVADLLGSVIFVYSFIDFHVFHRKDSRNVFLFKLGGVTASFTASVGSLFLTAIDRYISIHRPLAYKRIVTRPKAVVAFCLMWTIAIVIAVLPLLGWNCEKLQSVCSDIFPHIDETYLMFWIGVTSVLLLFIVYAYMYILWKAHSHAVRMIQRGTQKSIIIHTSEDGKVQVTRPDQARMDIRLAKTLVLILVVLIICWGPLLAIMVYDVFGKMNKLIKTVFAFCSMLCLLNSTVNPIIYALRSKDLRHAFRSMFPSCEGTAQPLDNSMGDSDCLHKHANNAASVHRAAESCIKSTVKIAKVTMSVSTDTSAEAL
T2 sequence (P34972 whole entry): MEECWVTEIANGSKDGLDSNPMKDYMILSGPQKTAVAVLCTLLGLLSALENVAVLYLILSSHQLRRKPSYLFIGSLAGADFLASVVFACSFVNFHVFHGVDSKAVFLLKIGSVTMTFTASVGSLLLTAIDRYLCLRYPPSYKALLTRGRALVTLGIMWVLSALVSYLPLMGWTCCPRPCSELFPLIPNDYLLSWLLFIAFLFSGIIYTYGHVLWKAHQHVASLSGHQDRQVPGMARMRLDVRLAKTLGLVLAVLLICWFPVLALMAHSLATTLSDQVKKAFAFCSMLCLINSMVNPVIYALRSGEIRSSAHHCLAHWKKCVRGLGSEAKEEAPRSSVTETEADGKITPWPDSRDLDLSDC

SMILES	CB1 receptor percent change in functional activity [1]	IC50 ([2]; Cannabinoid CB1 Receptor Binding IC50, radioligand CP-55,940 0.2 nM, SK-N-MC membranes)	IC50 [3]	EC50 [4]	inhibition at 10 µM [2]	CB2 receptor change in functional activity ([4]; one compound concentration)	EC50 [5]
CC12CCC(C1)C(C)(C)C2NC(=O)c1nn(C2CCCCC2)c2c1CCCCCC2 (stereo not shown) [Cpd 1, 1-cyclohexyl-4,5,6,7,8,9-hexahydro-1H-cyclooctapyrazole-3-carboxylic acid (1,3,3-trimethyl-bicyclo[2.2.1]hept-2-yl)-amide]	^(1)−78%	40 nM	0.1 nM and 0.09 nM	1.6 nM			
O=C(NCC12CC3CC(CC(C3)C1)C2)c1nn(C2CCCC2)c2c1CCCCCC2 [Cpd 3, 1-cyclopentyl-4,5,6,7,8,9-hexahydro-1H-cyclooctapyrazole-3-carboxylic acid (adamantan-1-ylmethyl)-amide]	^(1)−6%		20 nM	200 nM	45%		
CC(NC(=O)c1nn(C2CCCC2)c2c1CCCCCC2)C12CC3CC(CC(C3)C1)C2 (stereo not shown) [Cpd 5, 1-cyclopentyl-4,5,6,7,8,9-hexahydro-1H-cyclooctapyrazole-3-carboxylic acid (1-adamantan-1-yl-ethyl)-amide]	^(1)10%		100 nM		47%	29%	
O=C(N[C@@H](CO)c1ccccc1)c1n[nH]c2c1CCCCC/C2=C\c1cccc(Cl)c1 [Cpd 31, (9E)-(3-chloro-benzylidene)-4,5,6,7,8,9-hexahydro-1H-cyclooctapyrazole-3-carboxylic acid [(1R)-2-hydroxy-1-phenyl-ethyl]-amide]							18 nM
